Source: patent US20190270778A1, “Cyclic Peptides As C5a Receptor Antagonists” (priority 2016, published 2019)

Legend:
C5a receptor [1] = target: T1, C5a receptor (Homo sapiens, UniProt P21730); assay: HWB CD11b expression assay (C5a-challenged granulocytes, flow cytometry); type: cell-based
T1 construct: endogenous in cells; host or cells: leukocytes/granulocytes in freshly drawn whole blood of healthy volunteers
T1 sequence (P21730 1-350): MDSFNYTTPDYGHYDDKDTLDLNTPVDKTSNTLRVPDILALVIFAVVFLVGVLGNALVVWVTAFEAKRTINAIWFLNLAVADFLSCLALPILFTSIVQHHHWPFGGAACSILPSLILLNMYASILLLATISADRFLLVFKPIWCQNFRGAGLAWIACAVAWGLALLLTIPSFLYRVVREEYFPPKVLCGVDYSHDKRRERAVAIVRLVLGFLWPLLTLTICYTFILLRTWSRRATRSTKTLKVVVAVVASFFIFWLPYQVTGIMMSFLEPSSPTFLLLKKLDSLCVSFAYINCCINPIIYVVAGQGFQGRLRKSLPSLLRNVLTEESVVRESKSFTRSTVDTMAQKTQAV
Protocol: HWB was collected from healthy, non-medicated volunteers into BD Vacutainer® blood collection tubes with K2EDTA as an anticoagulant. HWB was aliquoted (85 μL/well) in 96-well, deep-well, V-bottom plates and incubated at 37° C. for 30 minutes. Test compounds (5 μL/well) were added to HWB and incubated at 37° C. for 30 minutes. Anti-human CD11b antibody conjugated with APC (BD Biosciences) was added to HWB (5 μL/well) and incubated at 37° C. for additional 30 minutes. HWB was then challenged with human C5a (final 1 nM) for 30 minutes at 37° C. Samples were treated with warm 1× Lyse/Fix buffer (BD Biosciences) to terminate activation and further incubated at 37° C. for 20 minutes to lyse red blood cells. Assay plates were centrifuged at 300×g for 5 minutes, supernatant was aspirated, and cells were washed once with PBS containing 0.5% FBS. Washed cells were resuspended in PBS containing 0.5% FBS and subjected to flow cytometric analysis using an LSRFortessa equipped with a HTS plate loader (BD Biosciences). The granulocyte population was gated for analysis of MF of CD11b staining using FACSDiva version 6.2 (BD Biosciences). Data from 11 compound concentrations (singlicate at each concentration) was normalized as a percentage of control based on the formula:
% of Control=100×(A−B)/(C−B)
where A is MF from wells containing test compound and C5a, B is MF from wells without C5a (background MF from unstimulated samples) and C is MF from wells containing only C5a (maximum MF). Inhibition curves and IC50 values (test compound concentrations which produce 50% inhibition) were determined using the Prism version 5 software (GraphPad). HWB was also stimulated with 11 different concentrations of C5a to construct a responsive curve and to obtain EC50 value (the concentration of C5a that gives half-maximal response) and curve slope using the Prism version 5 software. Kb (nM) was then calculated using the equation described by Leff and Dougal (TIPS 1993 14:110-112).

C5a receptor [2] = target: T1, C5a receptor; assay: HWB oxidative burst assay (C5a-induced, luminol chemiluminescence); type: cell-based
Protocol: Inhibition of oxidative burst activity was determined in HWB primed with TNF-α and stimulated with C5a. C5a-induced oxidative burst response (generation of reactive oxygen species) was then detected in the presence of luminol as a chemiluminescent signal.
On the day of assay, HWB was collected from a healthy, non-medicated volunteer into tubes containing 3.8% sodium citrate (final sodium citrate concentration in HWB is 0.38%) and stored in a 37° C. water bath until use (no longer than 60 minutes).
To start the assay, TNF-α was added to HWB to a final concentration of 1.0 nM and 68 μL of this HWB/TNF-α mix was transferred to each well of a 384-well white Optiplate (assay plate). 4.0 μL of various concentrations of test agent were then added to the assay plate and mixed twice gently by aspirating up and down. The assay plate was then placed on a thermoshaker (JITTERBUG-4) and incubated at 37° C. (without shaking). After 60 minutes, C5a (Complement Technology) prepared in luminol (Sigma) was added to the assay plate and mixed twice gently by aspirating up and down. The plate was then placed in a ViewLux 1430 Microplate Imager (Perkin Elmer). After 5 minutes, oxidative burst activity was determined with the ViewLux by measuring luminol-enhanced whole blood chemiluminescence. Final assay conditions were 1.5 mM HEPES pH 7.5, 0.015% BSA, 15% HBSS, 0.85 ng/mL TNFα, 1.0 mM Luminol, C5a 20 nM, 76.5% HWB, 0.15% DMSO and various concentrations of test agent.
The percent (%) effect at each concentration of test agent was then calculated based on and relative to the amount of signal that was produced by positive (i.e. full inhibition of C5a induced oxidative burst) and negative (i.e. completely uninhibited C5a induced oxidative burst) control wells contained within each assay plate. The concentration and % effect values for test agents were plotted and the concentration of test agent required for 50% effect (IC50) was determined with a four-parameter logistic dose response equation (BioBook; IDBS). Kb (nM) was then calculated (BioBook; IDBS) using the equation described by Leff and Dougal (TIPS 1993 14:110-112).

[3] = the molecule shown is the open-chain precursor; amide bond; 18-membered ring

Molecule	Kb (C5a receptor [1]) [nM]	Kb (C5a receptor [2]) [nM]	ring closure, crude yield [3] [%]
N=C(N)NCCC[C@@H]1NC(=O)[C@H](Cc2c[nH]c3ncccc23)NC(=O)[C@@H](C[C@H]2CC[C@@H](O)CC2)NC(=O)[C@@H]2C[C@@H](O)CN2C(=O)[C@@H](NC(=O)[C@H](Cc2ccccc2)NCC(=O)O)CCCNC1=O [Example 6, ((S)-1-(((3R,6S,9S,15S,19R,20aS)-6-((1H-pyrrolo[2,3-b]pyridin-3-yl)methyl)-9-(3-guanidinopropyl)-19-hydroxy-3-(((1s,4S)-4-hydroxycyclohexyl)methyl)-1,4,7,10,16-pentaoxoicosahydropyrrolo[1,2-a][1,4,7,10,13]pentaazacyclooctadecin-15-yl)amino)-1-oxo-3-phenylpropan-2-yl)glycine]	460	68.1	
N=C(N)NCCC[C@@H]1NC(=O)[C@H](Cc2c[nH]c3ccccc23)NC(=O)[C@@H](C[C@H]2CC[C@@H](O)CC2)NC(=O)[C@@H]2C[C@H](N)CN2C(=O)[C@@H](NC(=O)[C@H](Cc2ccccc2)NCC(=O)O)CCCNC1=O [Example 7, ((S)-1-(((3R,6S,9S,15S,19S,20aS)-6-((1H-indol-3-yl)methyl)-19-amino-9-(3-guanidinopropyl)-3-(((1s,4S)-4-hydroxycyclohexyl)methyl)-1,4,7,10,16-pentaoxoicosahydropyrrolo[1,2-a][1,4,7,10,13]pentaazacyclooctadecin-15-yl)amino)-1-oxo-3-phenylpropan-2-yl)glycine]	10.9	1.8	
N=C(N)NCCC[C@@H]1NC(=O)[C@H](Cc2c[nH]c3ccccc23)NC(=O)[C@@H](C[C@H]2CC[C@@H](O)CC2)NC(=O)[C@@H]2C[C@@H](N)CN2C(=O)[C@@H](NC(=O)[C@H](Cc2ccccc2)NCC(=O)O)CCCNC1=O [Example 8, ((S)-1-(((3R,6S,9S,15S,19R,20aS)-6-((1H-indol-3-yl)methyl)-19-amino-9-(3-guanidinopropyl)-3-(((1s,4S)-4-hydroxycyclohexyl)methyl)-1,4,7,10,16-pentaoxoicosahydropyrrolo[1,2-a][1,4,7,10,13]pentaazacyclooctadecin-15-yl)amino)-1-oxo-3-phenylpropan-2-yl)glycine]	19.8	4	
CC(=O)N[C@@H]1C[C@H]2C(=O)N[C@H](C[C@H]3CC[C@@H](O)CC3)C(=O)N[C@@H](Cc3c[nH]c4ccccc34)C(=O)N[C@@H](CCCNC(=N)N)C(=O)NCCC[C@H](NC(=O)[C@H](Cc3ccccc3)NCC(=O)O)C(=O)N2C1 [Example 9, ((S)-1-(((3R,6S,9S,15S,19R,20aS)-6-((1H-indol-3-yl)methyl)-19-acetamido-9-(3-guanidinopropyl)-3-(((1s,4S)-4-hydroxycyclohexyl)methyl)-1,4,7,10,16-pentaoxoicosahydropyrrolo[1,2-a][1,4,7,10,13]pentaazacyclooctadecin-15-yl)amino)-1-oxo-3-phenylpropan-2-yl)glycine]	32.6	1	
CC(=O)N[C@H]1C[C@H]2C(=O)N[C@H](C[C@H]3CC[C@@H](O)CC3)C(=O)N[C@@H](Cc3c[nH]c4ccccc34)C(=O)N[C@@H](CCCNC(=N)N)C(=O)NCCC[C@H](NC(=O)[C@H](Cc3ccccc3)NCC(=O)O)C(=O)N2C1 [Example 10, ((S)-1-(((3R,6S,9S,15S,19S,20aS)-6-((1H-indol-3-yl)methyl)-19-acetamido-9-(3-guanidinopropyl)-3-(((1s,4S)-4-hydroxycyclohexyl)methyl)-1,4,7,10,16-pentaoxoicosahydropyrrolo[1,2-a][1,4,7,10,13]pentaazacyclooctadecin-15-yl)amino)-1-oxo-3-phenylpropan-2-yl)glycine]	11.7	2.1	
N=C(N)NCCC[C@@H]1NC(=O)[C@H](Cc2c[nH]c3ccccc23)NC(=O)[C@@H](C[C@H]2CC[C@@H](O)CC2)NC(=O)[C@@H]2C[C@H](NCC(=O)O)CN2C(=O)[C@@H](NC(=O)[C@H](Cc2ccccc2)NCC(=O)O)CCCNC1=O [Example 12, ((31R,6S,9S,15S,19S,20aS)-6-((1H-indol-3-yl)methyl)-15-((S)-2-((carboxymethyl)amino)-3-phenylpropanamido)-9-(3-guanidinopropyl)-3-(((1s,4S)-4-hydroxycyclohexyl)methyl)-1,4,7,10,16-pentaoxoicosahydropyrrolo[1,2-a][1,4,7,10,13]pentaazacyclooctadecin-19-yl)glycine]	32.6	1.3	
N=C(N)NCCC[C@@H]1NC(=O)[C@H](Cc2n[nH]c3ccccc23)NC(=O)[C@@H](C[C@H]2CC[C@@H](O)CC2)NC(=O)[C@@H]2C[C@@H](O)CN2C(=O)[C@@H](NC(=O)[C@H](Cc2ccccc2)NCC(=O)O)CCCNC1=O [Example 16, ((S)-1-(((31R,6S,9S,15S,19R,20aS)-6-((1H-indazol-3-yl)methyl)-9-(3-guanidinopropyl)-19-hydroxy-3-(((1s,4S)-4-hydroxycyclohexyl)methyl)-1,4,7,10,16-pentaoxoicosahydropyrrolo[1,2-a][1,4,7,10,13]pentaazacyclooctadecin-15-yl)amino)-1-oxo-3-phenylpropan-2-yl)glycine]	75.2	6.5	
CCc1ccc2c(C[C@@H]3NC(=O)[C@@H](C[C@H]4CC[C@@H](O)CC4)NC(=O)[C@@H]4C[C@@H](O)CN4C(=O)[C@@H](NC(=O)[C@H](Cc4ccccc4)NCC(=O)O)CCCNC(=O)[C@H](CCCNC(=N)N)NC3=O)c[nH]c2c1 [Example 17, ((S)-1-(((31R,6S,9S,15S,19R,20aS)-6-((6-ethyl-1H-indol-3-yl)methyl)-9-(3-guanidinopropyl)-19-hydroxy-3-(((1s,4S)-4-hydroxycyclohexyl)methyl)-1,4,7,10,16-pentaoxoicosahydropyrrolo[1,2-a][1,4,7,10,13]pentaazacyclooctadecin-15-yl)amino)-1-oxo-3-phenylpropan-2-yl)glycine]	234	29.7	
H-Hyp(CH2CO2tBu)-dAla(3-(cis-4-hydroxycyclohexyl))-Trp(Boc)-Arg(Pbf)-Orn(Nα-[Boc-N(CH2CO2tBu)-Phe]; chain through Nδ)-OH?			83
H-Hyp(tBu)-dAla(3-(cis-4-hydroxycyclohexyl))-Ala(3-(1-Boc-1H-pyrrolo[2,3-b]pyridin-3-yl))-Arg(Pbf)-Orn(Nα-[Boc-N(CH2CO2tBu)-Phe]; chain through Nδ)-OH			100
H-Hyp(tBu)-dAla(3-(cis-4-hydroxycyclohexyl))-Ala(3-(4-methyl-1H-pyrazol-1-yl))-Arg(Pbf)-Orn(Nα-[Boc-N(CH2CO2tBu)-Phe]; chain through Nδ)-OH			48
H-Hyp(tBu)-dAla(3-(cis-4-hydroxycyclohexyl))-Trp(Boc)-Arg(Pbf)-Orn(Nα-[N-(CH2CO2tBu)-MePhe]; chain through Nδ)-OH			100
H-Pro((4S)-N(Boc)CH2CO2tBu)-dAla(3-(cis-4-hydroxycyclohexyl))-Trp(Boc)-Arg(Pbf)-Orn(Nα-[Boc-N(CH2CO2tBu)-Phe]; chain through Nδ)-OH			100
